In one assay the test system is USP8 MIT domain. Briefly: Peptide-phage display-based deep mutational scanning (DMS), USP8 MIT domain. It counts as binding, human. Conditions: bait USP8_MIT__P40818_1_142; EFCAB12 (Q6NXP0) 2-17; pair of mutant with wild-type wt_00016 (MDDDYEAYHSLFLSLL); sheet S3.B_ProP-PD_pairs. The protocol:
The residues of these 16 amino acid-long wild-type peptides were substituted to all natural amino acid residues, except cysteine, in all positions (Supplementary Table S2A). The designed peptide sequences were reverse-translated to oligonucleotides optimized to the codon usage of E. coli. The required flanking regions (5´[…] and 3´[…]) were added for library construction. The library was generated as previously described.
Four rounds of phage selections were carried out using the second generation human disorderome library or the constructed deep mutational scanning library. At least three individual replicates were used for each bait protein. 10 µg of GST-tagged proteins or GST control (diluted in PBS from the stock of proteins kept in the purification elution buffer) were immobilized in 100 µL PBS on a 96-well MaxiSorp (Nunc) plate overnight at 4 °C. The plates were incubated with blocking buffer (with 0.5% BSA in PBS) for 1 h at 4 °C followed by washing with 0.05% Tween 20 in PBS four times. The naïve phage library (10^11 CFU) was diluted in 1/5th volume PEG/NaCl (20% PEG-8000, 0.4 M NaCl) and 1X PBS, incubated on ice for 10 min and centrifuged at 10,000 [drawing 3] g for 10 min. The pellet was resuspended in the volume of PBS (100 µL/ well). The GST-coated control plate was incubated with 100 µL library per well in PBS for 1 h at 4 °C to remove non-specific binders. The supernatant was transferred to the target wells and incubated for 2 h at 4 °C. The wells were washed five times with 0.05% Tween 20 in PBS and the bound phages were eluted with 100 µL per well log-phase E. coli OmniMAX by incubating at 37° C while shaking. After 30 min, M13KO7 helper phages were added and incubated for an additional 45 min. The bacterial cultures were transferred to 1 mL 2YT supplemented with 100 µg/mL carbenicillin, 30 µg/mL kanamycin and 0.3 mM IPTG and grew overnight at 37 °C while shaking. The following day the cultures were centrifuged for 10 min at 2,000 [drawing 4] g, 4 °C. 1/10th volume of 10 [drawing 5] PBS was added to adjust the pH and heated at 65 °C for 10 min. The phage pools from each round were used as in-phages for the next round of selections.
The samples were prepared for NGS as previously described. Peptide-coding regions of the enriched phage pools were amplified and barcoded using Phusion High-Fidelity PCR Master Mix (Thermo Fisher) for 22 cycles and confirmed by 2% agarose gel electrophoresis. The PCR products were normalized with 25 µL Mag-bind Total Pure NGS beads (Omega Biotek) and 10 µL of each eluted sample (Qiagen Elution Buffer) was pooled and cleaned-up with a PCR purification kit (Qiagen). The PCR product was confirmed by 2% agarose electrophoresis and the band was extracted with QIAquick Gel extraction Kit (Qiagen) and eluted with 30 µL TE buffer. The dsDNA was quantified using QuantiT PicoGreen dsDNA Assay Kit (Thermo Fisher) and sent for NGS (Illumina MiSeq v3, 1 × 150 bp read setup, 20% PhiX, NGI SciLifeLab facility, Sweden). The NGS data were demultiplexed, adapter regions were trimmed and sequences with an average quality of at least 20 were translated to peptide sequences. The NGS data were analysed using custom Python scripts. The total read NGS counts for each selection experiment of each peptide sequence were compiled and annotated in PepTools (https://slim.icr.ac.uk/tools/peptools/). Since ProP-PD is in essence a competition assay, the possibility of the input phage library influencing the selection outcome was explored. For this, the Pearson correlation coefficient, p-value and coefficient of determination were calculated for all peptide NGS count fractions in the library coverage vs. in the selections results (Supplementary Fig. S7; Supplementary Table S2B; Supplementary Table S3B; Supplementary Table S7B). Pearson correlation coefficient and p-value were calculated using Python’s SciPy library. […]
Turning to ADDDYEAYHSLFLSLL [mut_04321], the hit_pair_ratio amounted to 112.64.
The same measure, in the same setting: under DDDDYEAYHSLFLSLL [mut_04322] stands 1.56; under EDDDYEAYHSLFLSLL [mut_04323], 6.98; under FDDDYEAYHSLFLSLL [mut_04324], 112.64.
Still for that read-out and setting: for GDDDYEAYHSLFLSLL [mut_04325] the value was 7.04; for HDDDYEAYHSLFLSLL [mut_04326], 42.37.
Still for that read-out and setting: for IDDDYEAYHSLFLSLL [mut_04327] the value was 43.89; for LDDDYEAYHSLFLSLL [mut_04329], 1.88; for MADDYEAYHSLFLSLL [mut_04339], 13.05.
The substance MDADYEAYHSLFLSLL [mut_04357] returned a hit_pair_ratio of 1.08.
The same measure, in the same setting: for MDDDAEAYHSLFLSLL [mut_04393] the value was 42.41; for MDDDDEAYHSLFLSLL [mut_04394], 12.10.
Still for that read-out and setting: under MDDDFEAYHSLFLSLL [mut_04396] stands 37.55; under MDDDGEAYHSLFLSLL [mut_04397], 12.55.
The same measure, in the same setting: for MDDDHEAYHSLFLSLL [mut_04398] the value was 169.63; for MDDDIEAYHSLFLSLL [mut_04399], 3.38; for MDDDKEAYHSLFLSLL [mut_04400], 168.96.
Turning to MDDDLEAYHSLFLSLL [mut_04401], the hit_pair_ratio is 337.92.
The same measure, in the same setting: for MDDDQEAYHSLFLSLL [mut_04405] the value was 14.11.
Still for that read-out and setting: under MDDDVEAYHSLFLSLL [mut_04409] stands 337.92; under MDDDWEAYHSLFLSLL [mut_04410], 56.54; under MDDDYAAYHSLFLSLL [mut_04411], 3.89.
Same read-out and setting: under MDDDYDAYHSLFLSLL [mut_04412] stands 12.14.

The same assay, now with this note: sheet S3.B_ProP-PD_pairs; bait USP8_MIT__P40818_1_142; ratio within the wild-type/mutant pair, larger over smaller averaged fraction (direction from fraction_wt and fraction_mut).
With AEVSDIESRIAALRAA, the hit_pair_ratio turned out to be 40.88.
The same measure, in the same setting: under EEVSDIESRIAALRAA stands 7.79; under FEVSDIESRIAALRAA, 3.72.
LEVSDIESRIAALRAA: the hit_pair_ratio is 16.71.
The same measure, in the same setting: for MDDDYEAFHSLFLSLL the value was 25.99; for MDDDYEAIHSLFLSLL, 132.20.
On the same count and under the same terms, under MDDDYEALHSLFLSLL stands 56.39; under MDDDYEAMHSLFLSLL, 337.92.
Still for that read-out and setting: under MDDDYEANHSLFLSLL stands 42.28; under MDDDYEASHSLFLSLL, 112.64; under MDDDYEATHSLFLSLL, 17.79.
As for MDDDYEAVHSLFLSLL, the hit_pair_ratio worked out at 48.27.
Still for that read-out and setting: for MDDDYEAWHSLFLSLL the value was 1.40; for MDDDYEAYASLFLSLL, 5.54; for MDDDYEAYDSLFLSLL, 337.92.
The same measure, in the same setting: under MDDDYEAYFSLFLSLL stands 29.21.
As to MDDDYEAYHALFLSLL, the hit_pair_ratio was 168.96.
Still for that read-out and setting: under MDDDYEAYHDLFLSLL stands 11.69; under MDDDYEAYHELFLSLL, 112.94.
The same measure, in the same setting: for MDDDYEAYHGLFLSLL the value was 10.26; for MDDDYEAYHHLFLSLL, 11.27.
For the substance MDDDYEAYHKLFLSLL, the hit_pair_ratio was determined as 169.63.
Consider MDDDYEAYHLLFLSLL, for which the hit_pair_ratio came to 17.79.
Same read-out and setting: for MDDDYEAYHMLFLSLL the value was 7.51; for MDDDYEAYHNLFLSLL, 1.00; for MDDDYEAYHPLFLSLL, 19.88.
Regarding MDDDYEAYHQLFLSLL, the hit_pair_ratio is on record as 337.92.
On the same count and under the same terms, for MDDDYEAYHRLFLSLL the value was 41.80; for MDDDYEAYHSGFLSLL, 337.92.
For the substance MDDDYEAYHSHFLSLL, the hit_pair_ratio is listed as 24.22.
Still for that read-out and setting: under MDDDYEAYHSIFLSLL stands 10.94.
In the case of MDDDYEAYHSKFLSLL, the hit_pair_ratio was 169.63.
Same read-out and setting: for MDDDYEAYHSLALSLL the value was 337.92.
Same read-out and setting: for MDDDYEAYHSLFGSLL the value was 337.92; for MDDDYEAYHSLFISLL, 5.63.
Same read-out and setting: for MDDDYEAYHSLFLALL the value was 2.81; for MDDDYEAYHSLFLFLL, 5.36.
With MDDDYEAYHSLFLHLL, the hit_pair_ratio turned out to be 2.92.

The target of a further assay is T1, USP8 Rhod domain (Homo sapiens, UniProt P40818).
T1 construct: USP8 Rhod (174–317) (UniProt: P40818); GST (cleaved yes); made in house; host or cells: Escherichia coli BL21-Gold (DE3)
T1 sequence (P40818 174-317): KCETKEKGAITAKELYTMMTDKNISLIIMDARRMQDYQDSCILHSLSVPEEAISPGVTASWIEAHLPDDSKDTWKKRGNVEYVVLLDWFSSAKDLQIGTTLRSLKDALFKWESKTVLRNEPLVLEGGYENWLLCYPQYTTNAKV
The experiment in a line: Peptide-phage display-based deep mutational scanning (DMS), USP8 Rhod domain. It counts as binding. To be noted: PSSM, library USP8_DMS, days 2,3; position 10.
For “KIAA1614_Q5VZ46_569_584 S10H (MERVLGGLSHPLRLLP; UniProt Q5VZ46 569-584, looked up, variant S10H)”, the “enrichment_relative_to_wt at position 10 (wt S)” value was -1.37 and the “proportion of amino acid at position 10 (wt S)” value was 0.41.
On the same counts, the results for “KIAA1614_Q5VZ46_569_584 S10I (MERVLGGLSIPLRLLP; UniProt Q5VZ46 569-584, looked up, variant S10I)” are -231 and 0.00245.
For “KIAA1614_Q5VZ46_569_584 S10V (MERVLGGLSVPLRLLP; peptide 569-584; UniProt Q5VZ46 569-584, looked up, variant S10V)” the same measures were -328 and 0.00172.

The same assay, now with this note: ProP-PD pairs, bait USP8_Rhodanese__P40818_174_317; wild-type/mutant pair, wild type KIAA1614 569-584 GMERVLGGLSSPLRLL (wt_00013).
KMERVLGGLSSPLRLL registered a hit_pair_ratio of 10.10.
Same read-out and setting: under LMERVLGGLSSPLRLL stands 64.39; under MMERVLGGLSSPLRLL, 6.27.
Consider NMERVLGGLSSPLRLL, for which the hit_pair_ratio was 1.70.
Same read-out and setting: under RMERVLGGLSSPLRLL stands 3.82.
Still for that read-out and setting: under VMERVLGGLSSPLRLL stands 53.66; under WMERVLGGLSSPLRLL, 1.49.
Same read-out and setting: under YMERVLGGLSSPLRLL stands 10.06.

Staying with this assay, now noted: bait USP8_Rhodanese__P40818_174_317; wild-type/mutant pair ratio of averaged fractions; negative values where mutant fraction is higher.
Turning to PMERVLGGLSSPLRLL, the hit_pair_ratio came out at 1.96.
Take QMERVLGGLSSPLRLL: the hit_pair_ratio is listed as -4.33.
Same read-out and setting: for SMERVLGGLSSPLRLL the value was -2.25.
Same read-out and setting: for TMERVLGGLSSPLRLL the value was -2.57.

Still in this assay, the particulars now being: wild type/mutant pair; bait USP8_Rhodanese__P40818_174_317; vs hit_library_peptide_wt GLALWEAKMKQLAERA; negative where mutant fraction exceeds wild type; ProP-PD pairs (sheet S7.B).
For the substance KLALWEAKMKQLAERA, the hit_pair_ratio was 238.03.
On the same count and under the same terms, for NLALWEAKMKQLAERA the value was 107.46; for QLALWEAKMKQLAERA, 553.50; for RLALWEAKMKQLAERA, 1107.01.

The values are drawn from paper PMC12057046, “Elucidation of short linear motif-based interactions of the MIT and rhodanese domains of the ubiquitin-specific protease 8” (Biology Direct, 2025).
